Assays:
[1] = test system: C57BL/6J mice; assay: Body weight, food intake and visceral fat-pad weights of mice fed test diets for 10 weeks; type: in vivo
From the text: (§1) The obesity-inducing control diet used in the test was high-fat diet (HFD: 40% fat calorie, 17 g lard+3% corn oil/100 g diet). Diets supplemented with nonenal (nonenal-supplemented high fat diet, NED) had the same composition as HFD, except that nonenal was included at 0.2% (see Table 1). The normal diet group (Chow) was fed with commercially available rodent chow. Nonenal was purchased from Sigma-Aldrich.
(§2) 5-week-old male C57BL/6J mice (Orient, Korea) were accustomed to the laboratory environment for 1 week while feeding solid feed. Then, they were randomly divided into normal diet, high-fat diet and test groups and bred for a total of 10 weeks. The diet was given between 10 and 11 a.m. every day together with water. Food intake was measured every day and body weight was measured once a week. In order to avoid transient body weight increase after feed intake, body weight was measured 2 hours after removing the feed. After fasting the test animal for at least 12 hours and anesthetizing with diethyl ether, blood, liver and visceral fat (epididymal fat, perirenal fat, mesenteric fat and retroperitoneal fat) were taken and weighed after washing with 0.1 M PBS (pH 7.4). Blood taken from the abdominal aorta was centrifuged at 1000×g for 15 minutes for the separation of plasma.

[2] = test system: C57BL/6J mice; assay: Biochemical analysis of blood (plasma lipids, glucose, ALT, AST) of mice fed test diets; type: in vivo; settings: 10 weeks
From the text: as §1, §2
After 10 weeks of breeding, total cholesterol, triglyceride and glucose levels in the plasma and lipid levels in the liver tissue were measured as follows. Total cholesterol, triglyceride, free fatty acid and glucose levels in the plasma were measured twice for each using a commercially available kit (Bio Clinical System). The activity of ALT (alanine aminotransferase) and AST (aspartate aminotransferase) used as liver function indicator were measured twice for each using a commercially available kit (Bio Clinical System, Korea).

[3] = test system: C57BL/6J mice; assay: Analysis of lipid level in liver tissues of mice fed test diets; type: in vivo; settings: 0.2% nonenal in high-fat diet, 10 weeks, as compared to HFD
From the text: as §1, §2
Lipids were extracted from the liver tissue according to Folch et al.'s method Folch J et al., J Biol. Chem. 226: 497-509 (1957)). After adding 1 mL of distilled water to 0.25 g of liver tissue, the liver tissue was homogenized using a Polytron homogenizer (IKA-Werke GmbH & Co., Ultra-Turrax, Staufen, Germany). After adding 5 mL of chloroform:methanol solution (2:1, v/v) to the homogenate and mixing well, the mixture was centrifuged at 1000×g for 10 minutes. After adding 2 mL of chloroform:methanol solution (2:1, v/v) again to the supernatant, the same procedure was repeated to completely separate the lipid components of the liver. […] The dried lipids were dissolved in 1 mL of methanol and then analyzed. […]

[4] = test system: C/EBPα; assay: RT-PCR analysis of visceral fat tissues: C/EBPα gene expression; type: in vivo, mice; settings: nonenal supplemented to the HFD vs HFD; to levels similar for the Chow group
From the text: as §1
(§3) 5-week-old male C57BL/6J mice (Orient, Korea) were accustomed to the laboratory environment for 1 week while feeding solid feed. Then, they were randomly divided into normal diet, high-fat diet and test groups and bred for a total of 10 weeks. The diet was given between 10 and 11 a.m. every day together with water. Food intake was measured every day and body weight was measured once a week. In order to avoid transient body weight increase after feed intake, body weight was measured 2 hours after removing the feed. […]
(§4) After adding 1 mL of Trizol agent per 0.1 g of visceral fat tissues, the mixture was homogenized and centrifuged at 12,000×g for 10 min at 4° C. […] The RNA sample concentration was measured at a wavelength of 260 nm and 280 nm using a UV/VIS spectrophotometer (Beckman coulter, DU730) and the integrity of RNA sample was verified by agarose gel electrophoresis. […]

[5] = test system: PPARγ2; assay: RT-PCR analysis of visceral fat tissues: PPARγ2 gene expression; type: in vivo, mice; settings: nonenal supplemented to the HFD vs HFD; to levels similar for the Chow group
From the text: as §1, §3, §4

[6] = test system: aP2; assay: RT-PCR analysis of visceral fat tissues: aP2 gene expression; type: in vivo, mice; settings: nonenal supplemented to the HFD vs HFD; to levels similar for the Chow group
From the text: as §1, §3, §4

[7] = test system: TNF-α; assay: RT-PCR analysis of visceral fat tissues: TNF-α gene expression; type: in vivo, mice; settings: feeding nonenal in HFD vs HFD
From the text: as §1, §3, §4

[8] = test system: IL-6; assay: RT-PCR analysis of visceral fat tissues: IL-6 gene expression; type: in vivo, mice; settings: feeding nonenal in HFD vs HFD
From the text: as §1, §3, §4

[9] = test system: rats; settings: cited from earlier work
[10] = test system: microbial growth; settings: cited from earlier work
[11] = 0.2% nonenal in high-fat diet, as compared to HFD
[12] = 0.2% nonenal in high-fat diet, as compared to HFD group

## CCCCCC/C=C/C=O [nonenal, trans-2-nonenal]
[1]; 0.2% nonenal in high-fat diet (NED), as compared to HFD
  decrease of body weight gain: 49%
[1]; [11]
  weight of epididymal fat-pad: significantly reduced
  weight of mesenteric fat-pad: significantly reduced
  weight of perirenal fat-pad: significantly reduced
  weight of retroperitoneal fat-pad: significantly reduced
[1]; NED group vs HFD group
  reduction of total visceral fat weight: 59%
[2]; [11]
  reduction of fasting blood sugar level: 31%
[2]; [12]
  lowering of plasma LDL+VLDL cholesterol level: 20%
  lowering of plasma free fatty acid level: 41%
  lowering of plasma total cholesterol level: 19%
  lowering of plasma triglyceride level: 37%
[2]; NED group vs HFD group
  decrease of plasma activity of ALT: 28%
  decrease of plasma activity of AST: 31%
[3]
  decrease of cholesterol level in liver tissue: 75%
  decrease of free fatty acid level in liver tissue: 74%
  decrease of triglyceride level in liver tissue: 78%
[4]
  expression of C/EBPα gene (mRNA) in visceral fat tissues: significantly decreased
[5]
  expression of PPARγ2 gene (mRNA) in visceral fat tissues: significantly decreased
[6]
  expression of aP2 gene (mRNA) in visceral fat tissues: significantly decreased
[7]
  HFD-induced elevation in the expression of TNF-α in visceral fat tissues: significantly reversed
[8]
  HFD-induced elevation in the expression of IL-6 in visceral fat tissues: significantly reversed
[9]
  LD50: more than 5,000 mg/kg
[10]
  microbial growth inhibitory effects: microbial growth inhibitory effects

— patent US8741964B2, “Uses of nonenal” (Industry-Academic Cooperation Foundation, Yonsei University, priority 2011, dated 2014)
